# Assay results as given in patent US10815272B2, “CD31 peptides” (INSTITUT NATIONAL DE LA SANTE ET DE LA RECHERCHE MEDICALE …, priority 2012, dated 2020).
# Where “and” joins values, the source holds several entries; their conditions need not be identical. Equal entries are not always repeated. Non-standard residues stand in square brackets, D forms with d. Residues, ends and D or L forms follow the SMILES beside them. No end group written: not given here.
# Key:
# [1] = solubility comparison of peptides; assay type: physicochemical; conditions: for maximum soubility: in the minimal solvent
# From the text: (§1) The solubility, activity and stability (resistance to freezing/thawing) of the P8F and P8RI peptides were compared to previously used peptides comprising the membrane-proximal sequences of CD31.
# [2] = system: occlusive thrombus in apoE KO mice; test: acute thrombosis model, ligation of the left common carotid artery in atherosclerotic apoE KO mice; assay type: in vivo
# Method: Atherosclerotic mice were treated with P8F at 2.5, 5 or 10 mg/kg/day, with aspirin as a positive control and vehicle as a negative control.
# The width of the columns is proportional to the number of mice included in each group (Aspirin=5, “2.5”=7, “5”=11, “10”=7, Vehicle=8). P<0.05 for all groups vs vehicle (Veh).
# The P8F sequence was also used in vivo (subcutaneous administration of different doses: 2.5, 5 and 10 mg/kg/d) in atherosclerotic mice (apoE KO, 35 weeks of age, male, chow diet) subjected to the ligation of the left common carotid artery (a model of acute thrombosis). Due to advanced age, most of the mice had already developed an atherosclerotic lesion close to the site where the ligation was performed.
# Jurkat T cells = test: calcium mobilization test using Jurkat T cells after TCR stimulation; assay type: cell-based
# Method: Jurkat T cells were preincubated with the fluo 3-AM calcium probe and stimulated by cross-linking the TCR with anti-CD3 antibodies and secondary antibody F(ab′)2 fragments.
# Jurkat T cells (10×10^6/ml) were preincubated with the fluo 3-AM calcium probe and stimulated by cross-linking the TCR with anti-CD3 antibodies and secondary antibody F(ab′)2 fragments.
# Activity was determined using the calcium mobilization test using Jurkat T cells, as described above.
# [3] = system: human platelet aggregation; test: platelet aggregation on collagen-coated microcapillaries under flow (whole blood perfusion); assay type: cell-based; conditions: soluble peptide, 1500 seconds^−1, first 5 minutes
# Method: The microcapillaries of Vena8 Fluoro+™ biochip (400 μm width×100 μm depth×20 mm length, Cellix) were coated with 2.5 mg/ml insoluble horse type I collagen overnight at 4° C. and then blocked with 0.1% HSA for 1 hour at room temperature. Human peripheral whole blood, anticoagulated with P-PACK (a direct thrombin inhibitor, non-chelating agent) was labeled with 5 μM DiOC6 for 10 minutes before perfusion with the Cellix pump at 1500 seconds^−1 through the coated capillaries. The interaction of platelets with the matrix was viewed in real time under a fluorescence microscope and was saved for off-line analysis. The surface covered by aggregated platelets was analyzed frame by frame (24 frames/s) over the first 5 minutes and expressed as coverage %.
# [4] = stability, resistance to repeated freeze-thaw cycles (loss of activity); assay type: physicochemical; conditions: number of cycles after which activity was diminished or abolished
# Method: as §1
# Stability was determined by subjecting the peptides to repeated freeze-thaw cycles and determining the number of cycles after which ED 50 was increased and/or biological activity abolished.
Molecule,minimal solvent [1],solubility in water [1],maximum soubility [1] [mg/mL],further results
"CC(C)C[C@@H](NC(=O)[C@@H](C)NC(=O)[C@H]1CCCN1C(=O)[C@@H](Cc1c[nH]c2ccccc12)NC(=O)[C@H](N)CCCCN)C(=O)N[C@H](Cc1ccccc1)C(=O)N[C@@H](C(=O)N[C@H](CCCNC(=N)N)C(=O)O)C(C)C [P8RI, H-kwpalfvr-OH] (H-[dK][dW][dP][dA][dL][dF][dV][dR]-OH)",water,soluble in water,30.5,
"CC(=O)Oc1ccccc1C(=O)O [aspirin, reference compound]",,,,occlusive thrombus found ([2]; aspirin s.c. 150 mg/kg/d): No occlusive thrombus
H-RVFLAPWK-OH [P8F],water,soluble in water,28.1,"intracellular calcium mobilization (median fluorescence intensity of fluo-3AM probe) (Jurkat T cells; 60 μg/ml peptide, Jurkat cells, TCR stimulation with anti-CD3 + F(ab')2): delayed and reduced; EC50 (Jurkat T cells; Jurkat cells stimulated with antiCD3+Fab antibodies, read-out: ED 50 (minimal dose producing 50 percent of the maximum obtainable inhibition of intracellular calcium mobilization)): 25 µM; human platelet aggregation (surface coverage %) [3]: inhibit human platelet aggregation in a dose dependent manner; antithrombotic effect relative to reference drug ([2]; 5 mg/Kg/d s.c., vs aspirin 150 mg/kg/d s.c.): same extent of antithrombotic effect as the reference drug; occlusive thrombus found ([2]; 5 mg/ml group (so in the source)): No occlusive thrombus; number of sections showing an occlusive thrombus, out of 1000 sections/sample ([2]; P8F-treated mice vs vehicle): significantly lowered; appearance of an occlusive thrombus ([2]; s.c. 2.5, 5 and 10 mg/kg/d, all tested doses): effective in preventing the appearance of an occlusive thrombus; maximum freeze/thaw cycles [4]: 3 cycles"
"SMRTSPRSSTLAVRVFLAPWKK [P22 mouse, reference compound]","10% Acetonitrile, and 5% acetic acid",,15.9,
"VRVFLAPWKK [PepReg, reference compound]","10% Acetonitrile, and 5% acetic acid",,8.1,
